Patent publication US20250084039A1, “4-SUBSTITUTED AMINOISOQUINOLINE DERIVATIVES” (Purdue Research Foundation, priority 2016, published 2025)
Read-outs that look alike come from different tables or passages of the source.

Key:
Aurora A = Aurora A (Homo sapiens (Human), UniProt O14965); experiment: Reaction Biology HotSpot kinase assay; format: biochemical; conditions: 500 nM compound; for inhibition at 0.5 µM: read-out: Percentage kinase inhibition Aurora A
Outline: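 Compounds were screened at one concentration, 500 nM, in a radiometric kinase reaction. After a 20-minute preincubation with enzyme and substrate in pH 7.5 HEPES buffer (1% DMSO), the mixture received 100 μM ATP containing [γ-33P]ATP and was left 2 h at room temperature.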

CDK6/cyclin D3 = CDK6/cyclin D3 (Homo sapiens (Human), UniProt Q00534); experiment: Reaction Biology HotSpot kinase assay; format: biochemical; conditions: 500 nM compound; for inhibition at 0.5 µM: read-out: Percentage kinase inhibition CDK6/cyclin D3
CDK6/cyclin D3, sequence (Q00534 whole entry): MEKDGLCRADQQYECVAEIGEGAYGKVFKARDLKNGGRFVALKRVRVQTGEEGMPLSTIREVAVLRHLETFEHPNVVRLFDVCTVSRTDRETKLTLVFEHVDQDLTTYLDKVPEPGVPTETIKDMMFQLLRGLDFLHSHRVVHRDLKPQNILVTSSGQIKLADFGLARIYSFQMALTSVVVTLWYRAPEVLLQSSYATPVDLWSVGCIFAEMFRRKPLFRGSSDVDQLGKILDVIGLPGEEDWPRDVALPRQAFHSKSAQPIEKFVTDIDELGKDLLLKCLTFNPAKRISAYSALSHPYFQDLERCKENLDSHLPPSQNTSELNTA
CDK6/cyclin D3, sequence (P30281 whole entry partner): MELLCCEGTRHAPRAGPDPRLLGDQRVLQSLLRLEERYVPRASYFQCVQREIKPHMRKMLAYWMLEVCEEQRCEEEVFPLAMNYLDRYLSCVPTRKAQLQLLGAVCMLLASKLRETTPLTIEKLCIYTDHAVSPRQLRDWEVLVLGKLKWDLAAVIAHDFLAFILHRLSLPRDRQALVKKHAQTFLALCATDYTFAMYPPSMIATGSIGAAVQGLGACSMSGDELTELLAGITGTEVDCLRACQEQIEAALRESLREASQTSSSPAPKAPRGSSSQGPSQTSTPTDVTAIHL
Outline: (§1)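 HotSpot 33P transfer format. Enzyme, substrate and 500 nM test compound sit together for 20 min, then labelled and unlabelled ATP totalling 100 μM are added and phosphorylation proceeds for 2 h at room temperature. Products are captured on P81 cellulose paper, and activity is expressed relative to DMSO.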

CDK9/cyclin K = CDK9/cyclin K (Homo sapiens (Human), UniProt P50750); experiment: Reaction Biology HotSpot kinase assay; format: biochemical; conditions: 500 nM compound; for inhibition at 0.5 µM: read-out: Percentage kinase inhibition CDK9/cyclin K
Outline: as §1

CDK9/cyclin T1 = CDK9/cyclin T1 (Homo sapiens (Human), UniProt P50750); experiment: Reaction Biology HotSpot kinase assay; format: biochemical; conditions: 500 nM compound; for inhibition at 0.5 µM: read-out: Percentage kinase inhibition CDK9/cyclin T1
Outline: as §1

ERBB4/HER4 = ERBB4/HER4 (Homo sapiens (Human), UniProt Q15303); experiment: Reaction Biology HotSpot kinase assay; format: biochemical; conditions: 500 nM compound; for inhibition at 0.5 µM: read-out: Percentage kinase inhibition ERBB4/HER4
Outline: as §1

FAK/PTK2 = FAK/PTK2 (Homo sapiens (Human), UniProt Q05397); experiment: Reaction Biology HotSpot kinase assay; format: biochemical; conditions: 500 nM compound; for inhibition at 0.5 µM: read-out: Percentage kinase inhibition FAK/PTK2
Outline: as §1

FRK/PTK5 = FRK/PTK5 (Homo sapiens (Human), UniProt P42685); experiment: Reaction Biology HotSpot kinase assay; format: biochemical; conditions: 500 nM compound; for inhibition at 0.5 µM: read-out: Percentage kinase inhibition FRK/PTK5
Outline: as §1

FYN = FYN (Homo sapiens (Human), UniProt P06241); experiment: Reaction Biology HotSpot kinase assay; format: biochemical; conditions: 500 nM compound; for inhibition at 0.5 µM: read-out: Percentage kinase inhibition FYN
Outline: as §1

HCK = HCK (Homo sapiens (Human), UniProt P08631); experiment: Reaction Biology HotSpot kinase assay; format: biochemical; conditions: 500 nM compound; for inhibition at 0.5 µM: read-out: Percentage kinase inhibition HCK
Outline: as §1

IKKa/CHUK = IKKa/CHUK (Homo sapiens (Human), UniProt O15111); experiment: Reaction Biology HotSpot kinase assay; format: biochemical; conditions: 500 nM compound; for inhibition at 0.5 µM: read-out: Percentage kinase inhibition IKKa/CHUK
IKKa/CHUK, sequence (O15111 whole entry): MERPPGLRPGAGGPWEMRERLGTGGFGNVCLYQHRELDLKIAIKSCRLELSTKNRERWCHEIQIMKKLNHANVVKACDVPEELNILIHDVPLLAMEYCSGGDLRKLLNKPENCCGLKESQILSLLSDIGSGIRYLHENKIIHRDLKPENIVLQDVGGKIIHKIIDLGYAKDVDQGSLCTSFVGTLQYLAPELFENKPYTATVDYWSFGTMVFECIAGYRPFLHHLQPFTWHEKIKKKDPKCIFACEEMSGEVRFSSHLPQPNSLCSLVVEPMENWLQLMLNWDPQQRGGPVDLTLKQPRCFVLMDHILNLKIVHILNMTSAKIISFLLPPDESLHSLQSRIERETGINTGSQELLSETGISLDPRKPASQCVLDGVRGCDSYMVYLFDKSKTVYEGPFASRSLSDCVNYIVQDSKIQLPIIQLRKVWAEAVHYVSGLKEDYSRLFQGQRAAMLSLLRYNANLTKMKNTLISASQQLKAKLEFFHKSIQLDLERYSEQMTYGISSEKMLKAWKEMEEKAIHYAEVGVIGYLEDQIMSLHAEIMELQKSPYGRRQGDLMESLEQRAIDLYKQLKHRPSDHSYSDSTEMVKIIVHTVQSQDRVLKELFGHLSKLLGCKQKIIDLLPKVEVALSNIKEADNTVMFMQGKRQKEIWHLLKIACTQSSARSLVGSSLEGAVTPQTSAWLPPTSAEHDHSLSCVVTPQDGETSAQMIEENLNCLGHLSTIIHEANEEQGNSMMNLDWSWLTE
Outline: as §1

ITK = ITK (Homo sapiens (Human), UniProt Q08881); experiment: Reaction Biology HotSpot kinase assay; format: biochemical; conditions: 500 nM compound; for inhibition at 0.5 µM: read-out: Percentage kinase inhibition ITK
Outline: as §1

JAK2 = JAK2 (Homo sapiens (Human), UniProt O60674); experiment: Reaction Biology HotSpot kinase assay; format: biochemical; conditions: 500 nM compound; for inhibition at 0.5 µM: read-out: Percentage kinase inhibition JAK2
Outline: as §1

LRRK2 = LRRK2 (Homo sapiens (Human), UniProt Q5S007); experiment: Reaction Biology HotSpot kinase assay; format: biochemical; conditions: 500 nM compound; for inhibition at 0.5 µM: read-out: Percentage kinase inhibition LRRK2
Outline: as §1

LYN B = LYN B (Homo sapiens (Human), UniProt P07948); experiment: Reaction Biology HotSpot kinase assay; format: biochemical; conditions: 500 nM compound; for inhibition at 0.5 µM: read-out: Percentage kinase inhibition LYN B
Outline: as §1

MST4 = MST4 (Homo sapiens (Human), UniProt Q9P289); experiment: Reaction Biology HotSpot kinase assay; format: biochemical; conditions: 500 nM compound; for inhibition at 0.5 µM: read-out: Percentage kinase inhibition MST4
Outline: as §1

PIM1 = PIM1 (Homo sapiens (Human), UniProt P11309); experiment: Reaction Biology HotSpot kinase assay; format: biochemical; conditions: 500 nM compound; for inhibition at 0.5 µM: read-out: Percentage kinase inhibition PIM1
Outline: as §1

ROCK1 = ROCK1 (Homo sapiens (Human), UniProt Q13464); experiment: Reaction Biology HotSpot kinase assay; format: biochemical; conditions: 500 nM compound; for inhibition at 0.5 µM: read-out: Percentage kinase inhibition ROCK1
ROCK1, sequence (Q13464 whole entry): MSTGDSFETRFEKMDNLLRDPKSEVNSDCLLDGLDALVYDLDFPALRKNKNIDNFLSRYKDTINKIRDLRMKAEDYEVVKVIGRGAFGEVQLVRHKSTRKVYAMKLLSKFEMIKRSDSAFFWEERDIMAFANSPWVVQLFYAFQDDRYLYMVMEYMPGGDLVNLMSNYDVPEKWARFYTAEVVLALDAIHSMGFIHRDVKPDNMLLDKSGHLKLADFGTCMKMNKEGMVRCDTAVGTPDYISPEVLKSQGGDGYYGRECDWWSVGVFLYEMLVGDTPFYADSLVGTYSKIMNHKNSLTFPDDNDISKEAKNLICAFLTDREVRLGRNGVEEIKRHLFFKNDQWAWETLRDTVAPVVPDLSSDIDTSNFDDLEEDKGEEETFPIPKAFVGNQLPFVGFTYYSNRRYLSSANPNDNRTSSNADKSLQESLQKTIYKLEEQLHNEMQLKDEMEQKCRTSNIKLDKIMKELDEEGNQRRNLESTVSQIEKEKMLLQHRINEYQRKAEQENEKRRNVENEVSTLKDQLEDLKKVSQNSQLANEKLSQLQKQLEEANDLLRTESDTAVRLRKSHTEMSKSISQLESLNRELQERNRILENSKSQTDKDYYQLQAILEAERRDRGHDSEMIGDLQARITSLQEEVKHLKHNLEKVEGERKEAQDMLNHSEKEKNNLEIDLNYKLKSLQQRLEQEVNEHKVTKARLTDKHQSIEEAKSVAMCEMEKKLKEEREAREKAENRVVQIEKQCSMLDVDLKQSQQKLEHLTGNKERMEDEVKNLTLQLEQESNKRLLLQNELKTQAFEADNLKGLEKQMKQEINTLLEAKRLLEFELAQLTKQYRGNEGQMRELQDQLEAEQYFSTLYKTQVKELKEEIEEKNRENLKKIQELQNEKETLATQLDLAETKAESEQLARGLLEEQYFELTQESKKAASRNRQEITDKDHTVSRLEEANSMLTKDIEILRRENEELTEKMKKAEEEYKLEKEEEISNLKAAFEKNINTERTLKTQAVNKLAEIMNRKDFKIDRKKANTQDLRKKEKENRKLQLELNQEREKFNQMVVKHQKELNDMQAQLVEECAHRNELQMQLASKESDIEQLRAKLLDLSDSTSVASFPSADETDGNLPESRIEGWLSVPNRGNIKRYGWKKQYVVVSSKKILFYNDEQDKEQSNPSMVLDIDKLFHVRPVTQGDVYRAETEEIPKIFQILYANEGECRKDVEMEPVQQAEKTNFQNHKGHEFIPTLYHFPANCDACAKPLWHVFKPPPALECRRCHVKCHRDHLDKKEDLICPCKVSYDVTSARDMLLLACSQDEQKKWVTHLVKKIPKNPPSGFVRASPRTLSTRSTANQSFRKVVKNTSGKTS
Outline: as §1

RSK2 = RSK2 (Homo sapiens (Human), UniProt P51812); experiment: Reaction Biology HotSpot kinase assay; format: biochemical; conditions: 500 nM compound; for inhibition at 0.5 µM: read-out: Percentage kinase inhibition RSK2
RSK2, sequence (P51812 whole entry): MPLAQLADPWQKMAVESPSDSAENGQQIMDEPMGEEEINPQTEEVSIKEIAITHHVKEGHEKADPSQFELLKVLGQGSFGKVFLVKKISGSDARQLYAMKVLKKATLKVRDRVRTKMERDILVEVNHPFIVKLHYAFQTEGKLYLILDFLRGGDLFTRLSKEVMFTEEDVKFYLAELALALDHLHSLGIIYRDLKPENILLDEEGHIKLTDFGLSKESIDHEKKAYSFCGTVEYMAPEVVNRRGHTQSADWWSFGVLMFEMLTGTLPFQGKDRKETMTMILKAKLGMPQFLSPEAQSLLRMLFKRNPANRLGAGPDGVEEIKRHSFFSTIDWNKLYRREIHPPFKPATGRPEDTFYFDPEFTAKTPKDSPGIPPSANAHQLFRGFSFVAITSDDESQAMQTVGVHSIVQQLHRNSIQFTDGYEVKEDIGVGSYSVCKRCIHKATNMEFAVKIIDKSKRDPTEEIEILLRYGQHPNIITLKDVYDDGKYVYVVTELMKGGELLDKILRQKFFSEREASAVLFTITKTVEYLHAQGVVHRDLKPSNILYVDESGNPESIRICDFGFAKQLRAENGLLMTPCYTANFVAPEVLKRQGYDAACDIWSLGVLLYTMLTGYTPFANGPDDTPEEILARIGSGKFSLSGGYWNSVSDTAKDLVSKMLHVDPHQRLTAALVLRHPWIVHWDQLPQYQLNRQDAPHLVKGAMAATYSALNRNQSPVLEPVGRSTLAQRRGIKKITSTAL
Outline: as §1

SYK = SYK (Homo sapiens (Human), UniProt P43405); experiment: Reaction Biology HotSpot kinase assay; format: biochemical; conditions: 500 nM compound; for inhibition at 0.5 µM: read-out: Percentage kinase inhibition SYK
Outline: as §1

TRKC = TRKC (Homo sapiens (Human), UniProt Q16288); experiment: Reaction Biology HotSpot kinase assay; format: biochemical; conditions: 500 nM compound, 100 μM radiolabeled ATP
Outline: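 Each compound was tested at 500 nM, with 33P incorporation from ATP (100 μM final, including [γ-33P]ATP) measured by P81 paper capture after a 2 h room-temperature reaction.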

ZAP70 = ZAP70 (Homo sapiens (Human), UniProt P43403); experiment: Reaction Biology HotSpot kinase assay; format: biochemical; conditions: 500 nM compound; for inhibition at 0.5 µM: read-out: Percentage kinase inhibition ZAP70
ZAP70, sequence (P43403 whole entry): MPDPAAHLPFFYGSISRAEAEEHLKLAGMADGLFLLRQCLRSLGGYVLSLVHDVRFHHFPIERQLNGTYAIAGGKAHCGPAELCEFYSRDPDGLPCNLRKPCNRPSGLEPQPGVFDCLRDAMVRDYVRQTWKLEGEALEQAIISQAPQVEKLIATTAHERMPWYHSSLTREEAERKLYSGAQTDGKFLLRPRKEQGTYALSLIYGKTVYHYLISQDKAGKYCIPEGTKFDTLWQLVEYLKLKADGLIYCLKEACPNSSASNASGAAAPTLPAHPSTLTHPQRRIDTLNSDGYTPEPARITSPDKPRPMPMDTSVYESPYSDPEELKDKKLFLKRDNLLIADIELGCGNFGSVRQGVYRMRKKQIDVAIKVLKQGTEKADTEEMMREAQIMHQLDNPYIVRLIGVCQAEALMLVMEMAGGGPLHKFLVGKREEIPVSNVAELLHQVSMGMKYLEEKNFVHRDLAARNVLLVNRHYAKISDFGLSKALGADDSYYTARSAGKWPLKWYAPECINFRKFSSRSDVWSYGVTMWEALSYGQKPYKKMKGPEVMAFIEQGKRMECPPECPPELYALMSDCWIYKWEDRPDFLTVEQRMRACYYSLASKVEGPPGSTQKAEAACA
Outline: as §1

c-Src = c-Src (Homo sapiens (Human), UniProt P12931); experiment: Reaction Biology HotSpot kinase assay; format: biochemical; conditions: 500 nM compound; for inhibition at 0.5 µM: read-out: Percentage kinase inhibition c-Src
c-Src, sequence (P12931 whole entry, looked up): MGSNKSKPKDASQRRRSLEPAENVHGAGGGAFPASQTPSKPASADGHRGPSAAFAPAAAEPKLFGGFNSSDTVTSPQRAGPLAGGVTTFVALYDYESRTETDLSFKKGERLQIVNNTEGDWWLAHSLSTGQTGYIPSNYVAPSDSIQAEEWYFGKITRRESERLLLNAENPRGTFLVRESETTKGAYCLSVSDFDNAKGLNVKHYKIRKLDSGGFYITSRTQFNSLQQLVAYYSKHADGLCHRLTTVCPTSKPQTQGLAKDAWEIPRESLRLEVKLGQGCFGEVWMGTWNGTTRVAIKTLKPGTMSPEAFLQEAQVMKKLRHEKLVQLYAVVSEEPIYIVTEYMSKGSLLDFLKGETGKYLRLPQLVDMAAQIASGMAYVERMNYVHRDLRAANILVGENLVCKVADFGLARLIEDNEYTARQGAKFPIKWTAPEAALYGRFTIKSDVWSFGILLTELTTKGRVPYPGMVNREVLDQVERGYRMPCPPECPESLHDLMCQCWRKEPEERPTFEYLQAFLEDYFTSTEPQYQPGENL
Outline: as §1

K562 = experiment: IC50 proliferation assay (Alamar Blue, 72 h); format: cell-based
MV4-11 = experiment: IC50 proliferation assay (Alamar Blue, 72 h); format: cell-based; conditions: read-out: IC50 (proliferation inhibition) Cell line - MV4-11
Outline: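 Cells seeded ~18 h before treatment with semi-serial compound dilutions made in DMSO then growth medium. After 72 h exposure, Alamar Blue added and read following 4 h further at 37 °C; IC50 for proliferation inhibition.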

ABL1 non-phosphorylated = ABL1 non-phosphorylated (Homo sapiens (Human), UniProt P00519); experiment: DiscoverX Kd Elect binding
NCI H1703 (NSCLC) = experiment: Activity against lung cancer cell line; format: cell-based; conditions: Homo sapiens, NCI-H1703
[1] = Homo sapiens, K562, 72 h, read-out: IC50 (proliferation inhibition) Cell line - K562
[2] = Homo sapiens, K562, Table 18, read-out: Inhibition of proliferation of K562 cell lines (CML)

Aurora A, sequence (O14965 whole entry): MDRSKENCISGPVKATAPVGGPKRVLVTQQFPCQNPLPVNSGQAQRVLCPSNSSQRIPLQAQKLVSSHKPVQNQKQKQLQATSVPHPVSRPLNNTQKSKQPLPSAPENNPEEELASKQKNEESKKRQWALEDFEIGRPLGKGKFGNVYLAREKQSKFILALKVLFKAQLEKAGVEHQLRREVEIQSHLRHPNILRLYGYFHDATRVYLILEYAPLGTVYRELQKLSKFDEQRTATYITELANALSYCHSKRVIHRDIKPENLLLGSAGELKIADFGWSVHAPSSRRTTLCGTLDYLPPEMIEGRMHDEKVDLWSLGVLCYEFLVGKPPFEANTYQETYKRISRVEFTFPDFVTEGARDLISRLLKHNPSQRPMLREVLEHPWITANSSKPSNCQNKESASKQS

CN(C)CC(O)CNC(=O)c1ccc(C#Cc2c(N)ncc3ccc(Cl)cc23)cc1 (stereo not shown) [HSM1702]
Percentage kinase inhibition Aurora A (Aurora A): 19% | Percentage kinase inhibition CDK6/cyclin D3 (CDK6/cyclin D3): 50% | Percentage kinase inhibition CDK9/cyclin K (CDK9/cyclin K): 53% | Percentage kinase inhibition CDK9/cyclin T1 (CDK9/cyclin T1): 41% | Percentage kinase inhibition ERBB4/HER4 (ERBB4/HER4): 0% | Percentage kinase inhibition FAK/PTK2 (FAK/PTK2): 6% | Percentage kinase inhibition FRK/PTK5 (FRK/PTK5): 0% | Percentage kinase inhibition FYN (FYN): 16% | Percentage kinase inhibition HCK (HCK): 2% | Percentage kinase inhibition IKKa/CHUK (IKKa/CHUK): 0% | Percentage kinase inhibition ITK (ITK): 0% | Percentage kinase inhibition JAK2 (JAK2): 0% | Percentage kinase inhibition LRRK2 (LRRK2): 40% | Percentage kinase inhibition LYN B (LYN B): 0% | Percentage kinase inhibition MST4 (MST4): 0% | Percentage kinase inhibition PIM1 (PIM1): 34% | Percentage kinase inhibition ROCK1 (ROCK1): 0% | Percentage kinase inhibition RSK2 (RSK2): 7% | Percentage kinase inhibition SYK (SYK): 4% | % inhibition of TrkC (TRKC): 81% | Percentage kinase inhibition ZAP70 (ZAP70): 0% | Percentage kinase inhibition c-Src (c-Src): 9% | IC50 (K562; 72 h, read-out: IC50 (proliferation inhibition) Cell line - K562): 5060 nM | IC50 (K562; Table 18, read-out: Inhibition of proliferation of K562 cell lines (CML)): 5057 ± 0.45 nM | IC50 (MV4-11; 72 h): 71 nM

Cc1ccc(C(=O)Nc2ccc(CN3CCN(C)CC3)c(C(F)(F)F)c2)cc1C#Cc1cc(N)nc2ccccc12 [HSN285]
inhibition at 0.5 µM (TRKC): 0% | inhibition at 0.5 µM (c-Src): 0% | IC50 (K562; [1]): 1100 nM | IC50 (K562; [2]): 1102 ± 0.08 nM | IC50 (MV4-11; Homo sapiens, MV4-11, 72 h): 722 nM

Cc1ccc(C(=O)Nc2ccc(CN3CCN(C)CC3)c(C(F)(F)F)c2)cc1C#Cc1c(N)ncc2ccc(Cl)cc12 [HSN286]
inhibition at 0.5 µM (Aurora A): 0% | inhibition at 0.5 µM (CDK6/cyclin D3): 7% | inhibition at 0.5 µM (CDK9/cyclin K): 24% | inhibition at 0.5 µM (CDK9/cyclin T1): 0% | inhibition at 0.5 µM (ERBB4/HER4): 71% | inhibition at 0.5 µM (FAK/PTK2): 0% | inhibition at 0.5 µM (FRK/PTK5): 95% | inhibition at 0.5 µM (FYN): 100% | inhibition at 0.5 µM (HCK): 95% | inhibition at 0.5 µM (IKKa/CHUK): 36% | inhibition at 0.5 µM (ITK): 0% | inhibition at 0.5 µM (JAK2): 67% | inhibition at 0.5 µM (LRRK2): 6% | inhibition at 0.5 µM (LYN B): 95% | inhibition at 0.5 µM (MST4): 0% | inhibition at 0.5 µM (PIM1): 0% | inhibition at 0.5 µM (ROCK1): 0% | inhibition at 0.5 µM (RSK2): 0% | inhibition at 0.5 µM (SYK): 0% | inhibition at 0.5 µM (TRKC): 91% | inhibition at 0.5 µM (ZAP70): 0% | Kd (ABL1 non-phosphorylated): 7.2 nM | IC50 (K562; [2]): 3.5 ± 0.02 nM | IC50 (MV4-11; Homo sapiens, MV4-11, 72 h): 0.4 nM | IC50 (NCI H1703 (NSCLC)): 50 nM

COc1cc2nc(N)nc(C#Cc3cc(C(=O)Nc4ccc(CN5CCN(C)CC5)c(C(F)(F)F)c4)ccc3C)c2cc1OC [HSN325]
inhibition at 0.5 µM (Aurora A): 0% | inhibition at 0.5 µM (CDK6/cyclin D3): 0% | inhibition at 0.5 µM (CDK9/cyclin K): 7% | inhibition at 0.5 µM (CDK9/cyclin T1): 0% | inhibition at 0.5 µM (ERBB4/HER4): 7% | inhibition at 0.5 µM (FAK/PTK2): 0% | inhibition at 0.5 µM (FRK/PTK5): 49% | inhibition at 0.5 µM (FYN): 10% | inhibition at 0.5 µM (HCK): 18% | inhibition at 0.5 µM (IKKa/CHUK): 6% | inhibition at 0.5 µM (ITK): 1% | inhibition at 0.5 µM (JAK2): 0% | inhibition at 0.5 µM (LRRK2): 0% | inhibition at 0.5 µM (LYN B): 35% | inhibition at 0.5 µM (MST4): 0% | inhibition at 0.5 µM (PIM1): 0% | inhibition at 0.5 µM (ROCK1): 3% | inhibition at 0.5 µM (RSK2): 0% | inhibition at 0.5 µM (SYK): 0% | inhibition at 0.5 µM (TRKC): 4% | inhibition at 0.5 µM (ZAP70): 0% | inhibition at 0.5 µM (c-Src): 30% | IC50 (K562; [1]): 444 nM | IC50 (K562; [2]): 44 ± 0.1 nM | IC50 (MV4-11; Homo sapiens, MV4-11, 72 h): 135 nM

Cc1ccc(C(=O)Nc2ccc(CN3CCN(C)CC3)c(C(F)(F)F)c2)cc1C#Cc1cnc(N)c2ccccc12 [HSN334, 3-((1-aminoisoquinolin-4-yl)ethynyl)-4-methyl-N-(4-((4-methylpiperazin-1-yl)methyl)-3-(trifluoromethyl)phenyl)benzamide]
Kd (ABL1 non-phosphorylated): 4.4 nM | IC50 (K562; [1]): 6 nM | IC50 (K562; [2]): 6.1 ± 0.1 nM | IC50 (MV4-11; Homo sapiens, MV4-11, 72 h): 1 nM | IC50 (NCI H1703 (NSCLC)): 98 nM

Cc1ccc(C(=O)Nc2ccc(CN3CCN(C)CC3)c(C(F)(F)F)c2)cc1C#Cc1cnc(N)c2ncccc12 [HSN356, 3-((8-amino-1,7-naphthyridin-5-yl)ethynyl)-4-methyl-N-(4-((4-methylpiperazin-1-yl)methyl)-3-(trifluoromethyl)phenyl)benzamide]
inhibition at 0.5 µM (TRKC): 59% | Kd (ABL1 non-phosphorylated): 2.5 nM | IC50 (K562; [1]): 2 nM | IC50 (K562; [2]): 1.8 ± 0.03 nM | IC50 (MV4-11; Homo sapiens, MV4-11, 72 h): 0.4 nM | IC50 (NCI H1703 (NSCLC)): 88 nM
